Test results from article PMC8494430, “Development of a fluorogenic ADAMTS-7 substrate” (Journal of Enzyme Inhibition and Medicinal Chemistry, 2021).

How the values were obtained:
ADAMTS-7 [1] = target: T1, ADAMTS-7 (Homo sapiens, UniProt Q9UKP4); assay: LTBP4S-A cleavage assay (SDS-PAGE, densitometry); assay type: biochemical
T1 construct: the recombinant construct ADAMTS7-T8, which lacks the C-terminal PLAC domain; made in house
T1 sequence (Q9UKP4 237-1631 limits assumed): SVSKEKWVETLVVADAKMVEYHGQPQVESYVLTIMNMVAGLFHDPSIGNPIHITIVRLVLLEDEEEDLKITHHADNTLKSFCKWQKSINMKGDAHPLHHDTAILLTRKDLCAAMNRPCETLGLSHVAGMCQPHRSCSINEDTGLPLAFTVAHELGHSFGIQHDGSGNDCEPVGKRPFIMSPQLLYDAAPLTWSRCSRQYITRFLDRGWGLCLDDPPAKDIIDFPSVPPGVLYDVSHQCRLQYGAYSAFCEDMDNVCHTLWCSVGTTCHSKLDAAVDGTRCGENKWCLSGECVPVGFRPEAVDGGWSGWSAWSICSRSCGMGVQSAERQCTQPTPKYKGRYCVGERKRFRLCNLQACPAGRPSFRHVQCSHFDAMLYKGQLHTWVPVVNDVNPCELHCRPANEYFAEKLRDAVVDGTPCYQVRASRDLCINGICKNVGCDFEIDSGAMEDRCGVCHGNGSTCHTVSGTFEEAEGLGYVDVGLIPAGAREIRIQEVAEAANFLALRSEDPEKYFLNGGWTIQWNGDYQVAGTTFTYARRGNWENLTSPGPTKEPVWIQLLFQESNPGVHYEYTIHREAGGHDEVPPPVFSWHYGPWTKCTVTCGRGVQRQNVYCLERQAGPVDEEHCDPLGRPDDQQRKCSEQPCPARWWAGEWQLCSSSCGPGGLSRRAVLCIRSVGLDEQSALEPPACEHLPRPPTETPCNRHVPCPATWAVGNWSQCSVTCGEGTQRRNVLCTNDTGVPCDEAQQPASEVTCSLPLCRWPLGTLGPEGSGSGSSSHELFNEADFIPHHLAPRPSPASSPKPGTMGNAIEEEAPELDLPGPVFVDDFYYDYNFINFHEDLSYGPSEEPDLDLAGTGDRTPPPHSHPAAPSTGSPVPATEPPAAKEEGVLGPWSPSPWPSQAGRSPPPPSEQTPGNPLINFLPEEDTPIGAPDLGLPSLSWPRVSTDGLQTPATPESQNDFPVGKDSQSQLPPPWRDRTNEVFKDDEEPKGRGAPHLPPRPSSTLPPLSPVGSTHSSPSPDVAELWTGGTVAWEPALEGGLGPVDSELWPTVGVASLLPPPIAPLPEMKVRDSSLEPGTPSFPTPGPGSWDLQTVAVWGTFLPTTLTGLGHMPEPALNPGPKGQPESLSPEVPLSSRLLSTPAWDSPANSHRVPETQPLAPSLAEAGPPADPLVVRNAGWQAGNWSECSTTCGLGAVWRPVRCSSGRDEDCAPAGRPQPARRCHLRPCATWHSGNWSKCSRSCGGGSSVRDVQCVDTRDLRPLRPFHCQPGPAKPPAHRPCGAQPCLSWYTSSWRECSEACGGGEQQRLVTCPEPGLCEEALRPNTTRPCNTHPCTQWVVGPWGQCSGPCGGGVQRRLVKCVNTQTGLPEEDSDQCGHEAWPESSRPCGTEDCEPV
Experimental: LTBP4S-A cleavage assays were performed as before[8] with small modifications. Here, ADAMTS-7 –T8 (19 nM) was pre-incubated either in the absence or presence of the indicated inhibitors for 2 h at 37 °C before addition of […] (5.6 µM). After 17 h, proteolysis was stopped by addition of Bolt^TM LDS Sample Buffer, 5% β-mercaptoethanol, and heating to 95 °C. Samples were frozen at […] before use. For SDS-PAGE analysis, 12% Bis-Tris Plus Gels (ThermoFisher) were used and stained for 6 h with Imperial protein stain (ThermoFisher). Gels were destained overnight in pure water at room temperature on an orbital shaker and scanned for analysis of LTBP4S-A cleavage bands. To accurately determine cleavage inhibition from each inhibitor, inhibition was quantified by densitometry of the bands corresponding to cleavage products using ImageJ software. The data were plotted using GraphPad Prism 7.0.

ADAMTS-7 [2] = target: T1, ADAMTS-7; assay: Cleavage of FRET peptides by ADAMTS-7 (kinetic constants, cleavage rate); assay type: biochemical; conditions: 37 °C
Experimental: All enzyme assays were conducted in TNC-B buffer (50 mM Tris- HCl, pH 7.5, 150 mM NaCl, 10 mM CaCl2, and 0.02% NaN3) at 37 °C in 384 well plates (Cat. No: 784900, Greiner Bio-One, Austria). To avoid the formation of inhibitor or peptide aggregates, the detergent Brij-35 (0.05%) was added to TNC-B[13]. For inhibition studies, stock solutions of chemical compounds were prepared in dimethyl sulfoxide (DMSO) (10 mM). These were further diluted at different concentrations in TNC-B and incubated with ADAMTS-1, ADAMTS-4, ADAMTS-5, ADAMTS-7 or ADAMTS-8 (10 nM) for 1 h at 37 °C. Blank samples were prepared using buffer only and the rate of cleavage for blank reactions was subtracted from the rates measured in the presence of enzyme. Upon addition of the indicated ADAMTS-7 FRET substrates (40 µM), the fluorescence was measured immediately using a FLUOstar Omega microplate reader (BMG Labtech, Germany) with an excitation filter wavelength of 485 nm and an emission filter wavelength of 520 nm.
Relative Fluorescence Units (RFU) were converted into product concentration by dividing for the number of RFU generated upon complete digestion of 2.5 µM substrate. kcat values were determined by dividing Vmax by [E]t. Correction for inner filter effects was performed as before.

[3] = cleavage of ATS7FP7 by ADAMTS-7 (10 nM)

IC50 (ADAMTS-7 [1]; ADAMTS-7 19 nM, 2 h preincubation, LTBP4S-A 5.6 μM, 17 h, read-out: IC50 (LTBP4S-A substrate)) | increase of ADAMTS-7 inhibition relative to JG23 (ADAMTS-7 [1]; against LTBP4S-A) | Compound | cleavage rate by ADAMTS-7 (ADAMTS-7 [2]; FRET peptides 40 μM, ADAMTS-7 10 nM) | Km (ADAMTS-7 [2]; [3]) | kcat (ADAMTS-7 [2]; [3])
112 ± 14 nM | 5.1 fold | O=C(NCCC[C@@H](NS(=O)(=O)c1ccc(OCc2ccc(F)cc2Cl)cc1)C(=O)NO)c1ccccc1 [EDV33] | – | – | –
– | – | Glu-Ala-Ala-Ala-Arg↓Ala-Glu↓Ala-Ala-Ala-Lys [ATS7FP7] | increased compared to that of ATS7FP0 | 10.5 ± 1.5 µM | 0.035 ± 0.0017 s⁻¹
